In ChEMBL document CHEMBL1156124, “Assessment of the putative binding conformation of a pyrazolopyridine class of inhibitors of MAPKAPK2 using computational studies” (Eur J Med Chem, 2010):

Biological target: MAP kinase-activated protein kinase 2 (Homo sapiens) (UniProt P49137)
Assay: Inhibition of MK2

Sequence of MAP kinase-activated protein kinase 2 (Homo sapiens) (P49137 whole entry, looked up): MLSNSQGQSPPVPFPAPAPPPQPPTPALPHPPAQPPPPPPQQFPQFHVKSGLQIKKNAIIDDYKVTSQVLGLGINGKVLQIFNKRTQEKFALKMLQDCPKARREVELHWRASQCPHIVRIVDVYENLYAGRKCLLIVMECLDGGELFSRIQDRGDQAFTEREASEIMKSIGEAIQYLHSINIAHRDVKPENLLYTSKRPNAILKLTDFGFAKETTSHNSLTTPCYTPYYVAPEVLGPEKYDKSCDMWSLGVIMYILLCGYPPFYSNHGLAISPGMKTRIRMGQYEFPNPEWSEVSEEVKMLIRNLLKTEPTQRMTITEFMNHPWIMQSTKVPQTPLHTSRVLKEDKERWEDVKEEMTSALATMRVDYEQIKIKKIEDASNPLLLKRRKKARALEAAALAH

Row | Compound | Activity
1 | Cc1c(N[C@@H]2CCCNC2)c(C#N)c2ccnn2c1NCc1nc2ccccc2s1 | < 0.2 µM
2 | CCOc1ccc(Nc2c(C)c(NCCC3CCCN3)c(C#N)c3ccnn23)cc1 (centres undefined) | 1 µM
3 | CCOc1ccc(Nc2c(C)c(NC3CNCc4ccccc43)c(C#N)c3ccnn23)cc1 (centres undefined) | 1 µM
4 | CCOc1ccc(Nc2c(C)c(N[C@H]3CC[C@H](NCC(C)C)CC3)c(C#N)c3ccnn23)cc1 | < 0.2 µM
5 | Cc1c(N[C@@H]2CCCNC2)c(C#N)c2ccnn2c1Nc1ccccc1 | < 0.2 µM
6 | CCOc1ccc(Nc2c(C)c(N[C@H]3CC[C@H](NCCc4ccccc4)CC3)c(C#N)c3ccnn23)cc1 | 0.2 µM
7 | CCOc1ccc(Nc2c(C(C)C)c(N[C@H]3CC[C@H](N)CC3)c(C#N)c3ccnn23)cc1 | < 0.2 µM
8 | CCOc1ccc(Nc2c(C)c(NC3CCNCC3)c(C#N)c3ccnn23)cc1 | 0.2 µM
9 | CCOc1ccc(Nc2c(C)c(NCC3CCCNC3)c(C#N)c3ccnn23)cc1 (centres undefined) | 1 µM
10 | COCCOc1ccc(Nc2c(C)c(N[C@H]3CC[C@H](N)CC3)c(C#N)c3ccnn23)cc1 | < 0.2 µM
11 | CCOc1ccc(Nc2c(C)c(NCCCCCN)c(C#N)c3ccnn23)cc1 | 0.2 µM
12 | CCOc1ccc(Nc2c(C)c(NC3CCC(N)CC3)c(C#N)c3ccnn23)cc1 (centres undefined) | < 0.2 µM
13 | CCOc1ccc(Nc2c(C)c(NCC3CCCN3)c(C#N)c3ccnn23)cc1 (centres undefined) | 1 µM
14 | CCOc1ccc(Nc2c(C)c(N[C@H]3CC[C@H](NCc4ccccc4)CC3)c(C#N)c3ccnn23)cc1 | 0.2 µM
15 | N#Cc1c(N[C@H]2CC[C@H](N)CC2)cc(Nc2nc3ccccc3s2)n2nccc12 | 0.2 µM
16 | Cc1c(N[C@H]2CC[C@H](N)CC2)c(C#N)c2ccnn2c1Nc1ccc(-c2ccccc2)cc1 | < 0.2 µM
17 | CCOc1ccc(Nc2cc(N[C@@H]3CCCNC3)c(C#N)c3ccnn23)cc1 | 0.2 µM
18 | CCOc1ccc(Nc2c(C)c(N[C@H]3CC[C@H](NCCCc4ccccc4)CC3)c(C#N)c3ccnn23)cc1 | 0.2 µM
19 | CCOc1ccc(Nc2c(CC(C)C)c(N[C@@H]3CCCNC3)c(C#N)c3ccnn23)cc1 | < 0.2 µM
20 | NC(=O)n1ncc2ccccc21 | < 150 µM
21 | CCOc1ccc(Nc2c(CC)c(N[C@@H]3CCCNC3)c(C#N)c3ccnn23)cc1 | < 0.2 µM
22 | c1ccn2nccc2c1 | < 0.2 µM
23 | CCOc1ccc(Nc2c(C)c(N[C@H]3CC[C@H](NCC4CCCCC4)CC3)c(C#N)c3ccnn23)cc1 | 0.2 µM
24 | N#Cc1c(N[C@@H]2CCCNC2)cc(Nc2ccc(-c3ccccc3)cc2)n2nccc12 | 0.2 µM
25 | Cc1c(N[C@H]2CC[C@H](N)CC2)c(C#N)c2ccnn2c1NOc1ccccc1 | 0.2 µM
26 | CCOc1ccc(Nc2c(C)c(OC3CCCNC3)nc3ccnn23)cc1 (centres undefined) | 1 µM
27 | CCCc1c(N[C@@H]2CCCNC2)c(C#N)c2ccnn2c1Nc1ccc(OCC)cc1 | < 0.2 µM

Row | Compound | Activity
28 | CCOc1ccc(Nc2c(C)c(NC3CCC(NCc4ccccc4)CC3)c(C#N)c3ccnn23)cc1 (centres undefined) | 0.2 µM
29 | N#Cc1c(N[C@H]2CC[C@H](N)CC2)cc(Nc2ccccc2Cl)n2nccc12 | 0.2 µM
30 | CCOc1ccc(Nc2c(CC)c(N[C@H]3CC[C@H](N)CC3)c(C#N)c3ccnn23)cc1 | < 0.2 µM
31 | CCOc1ccc(Nc2c(C3CC3)c(N[C@H]3CC[C@H](N)CC3)c(C#N)c3ccnn23)cc1 | < 0.2 µM
32 | COCCOc1ccc(Nc2c(C)c(N[C@@H]3CCCNC3)c(C#N)c3ccnn23)cc1 | < 0.2 µM
33 | CCOc1ccc(Nc2c(CCO)c(N[C@@H]3CCCNC3)c(C#N)c3ccnn23)cc1 | < 0.2 µM
34 | CCOc1ccc(Nc2c(C)c(N[C@H]3CCCNC3)c(C#N)c3ccnn23)cc1 | < 0.2 µM
35 | N#Cc1c(N[C@@H]2CCCNC2)cc(Nc2ccccc2Cl)n2nccc12 | 0.2 µM
36 | C=CCc1c(N[C@@H]2CCCNC2)c(C#N)c2ccnn2c1Nc1ccc(OCC)cc1 | < 0.2 µM
37 | COCCOc1ccc(Nc2c(C)c(N[C@H]3CCNC3)c(C#N)c3ccnn23)cc1 | 0.2 µM
38 | CCOc1ccc(Nc2c(C)c(N[C@@H]3CCCC[C@H]3N)c(C#N)c3ccnn23)cc1 | 10 µM
39 | Cc1c(N[C@@H]2CCCNC2)c(C#N)c2ccnn2c1Nc1nc2ccccc2s1 | < 0.2 µM
40 | CCOc1ccc(Nc2c(C)c(NCCN)c(C#N)c3ccnn23)cc1 | 0.2 µM
41 | CCOc1ccc(Nc2c(C)c(NCCC3CCCN3C)c(C#N)c3ccnn23)cc1 (centres undefined) | 10 µM
42 | CCOc1ccc(Nc2c(C)c(NCCCN)c(C#N)c3ccnn23)cc1 | 0.2 µM
43 | CCOc1ccc(Nc2c(C)c(NCC3CCCCN3)c(C#N)c3ccnn23)cc1 (centres undefined) | 1 µM
44 | CCOc1ccc(Nc2c(C)c(NCC3CCNC3)c(C#N)c3ccnn23)cc1 (centres undefined) | 1 µM
45 | CCOc1ccc(Nc2c(C)c(NCCCCCCN)c(C#N)c3ccnn23)cc1 | 10 µM
46 | CCOc1ccc(Nc2c(C)c(OC3CCC(N)CC3)nc3ccnn23)cc1 (centres undefined) | 0.2 µM
47 | CCOc1ccc(Nc2c(C)c(N[C@H]3CC[C@H](N)CC3)c(C#N)c3ccnn23)cc1 | < 0.2 µM
48 | CCOc1ccc(Nc2c(C3CC3)c(N[C@@H]3CCCNC3)c(C#N)c3ccnn23)cc1 | 0.2 µM
49 | CCOc1ccc(Nc2c(C)c(NC3CCCC(N)C3)c(C#N)c3ccnn23)cc1 (centres undefined) | 1 µM
50 | CCOc1ccc(Nc2c(C)c(OCCN)nc3ccnn23)cc1 | 10 µM
51 | CCOc1ccc(Nc2c(C)c(NC3CCCCC3N)c(C#N)c3ccnn23)cc1 (centres undefined) | 10 µM
52 | CCOc1ccc(Nc2c(C)c(NCCCNC3CCCCC3)c(C#N)c3ccnn23)cc1 | 1 µM
53 | CCOc1ccc(Nc2c(-c3ccccc3)c(NC3CCCNC3)c(C#N)c3ccnn23)cc1 (centres undefined) | 0.2 µM
54 | CCOc1ccc(Nc2c(C)c(NCCC3CCCCN3)c(C#N)c3ccnn23)cc1 (centres undefined) | 10 µM
